Results reported in publication PMC5441580, “GPR40 partial agonist MK-2305 lower fasting glucose in the Goto Kakizaki rat via suppression of endogenous glucose production” (PLoS ONE, 2017).
Values joined by “and” are separate entries in the source; they are usually repeats but may differ in a detail not shown here. Equal values may be shown once.

How the values were obtained:
rat GPR40 (FFAR1) = molecular target: T1, rat GPR40 (FFAR1) (Rattus norvegicus, UniProt Q8K3T4); test: IP1 functional assay, CHO cells stably expressing rat GPR40; assay type: cell-based; conditions: for Receptor Activation (%): representative curve Fig 1B
T1 construct: expressed in transfected cells
T1 sequence (Q8K3T4 whole entry): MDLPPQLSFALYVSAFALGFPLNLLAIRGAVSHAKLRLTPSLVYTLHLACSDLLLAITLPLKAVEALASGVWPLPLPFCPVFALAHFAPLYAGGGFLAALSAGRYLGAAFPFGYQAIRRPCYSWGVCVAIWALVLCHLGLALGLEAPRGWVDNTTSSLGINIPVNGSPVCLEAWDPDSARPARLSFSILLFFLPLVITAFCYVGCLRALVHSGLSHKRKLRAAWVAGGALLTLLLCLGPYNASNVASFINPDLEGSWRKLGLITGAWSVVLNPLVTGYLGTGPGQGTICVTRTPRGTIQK
Procedure: CHO Jump-IN cells stably expressing rat GPR40 or HEK293 Jump-IN cells stably expressing rat GPR120 were cultured in DMEM media supplemented with 10% dialyzed FBS, non-essential amino acids, penicillin/streptomycin, 10 μg/ml Blasticidin S HCL and 200 or 100 μg/ml Hygromycin B, respectively (Life Technologies). Cell stocks were maintained and grown in a sub-confluent state using standard cell culture procedures. The day before the experiment, the cells were harvested with non-enzymatic cell dissociation buffer and re-suspended in DMEM supplemented as described above at 0.15 million cells per ml. […] The seeded plates were incubated overnight at 37°C in a humidified environment.
On the day of the experiment, the growth media was removed from the assay plate by centrifugation using a BlueCatBio BlueWasher, protocol #21 “Light Dry” and 10 μl of IP1 stimulation buffer (prepared according to the Cisbio IP-one Tb HTRF kit) is added to each well. Test compounds were dissolved and serially diluted in DMSO as 200X the final assay concentration and 50 nl of the compound dilution was acoustically added to each well of the assay plates. The plates were then incubated for 60 minutes at room temperature and 10 μl of detection buffer (prepared according to the IP-one Tb HTRF kit) is added to each well of the assay plate. The plates were then incubated for one additional hour at room temperature. […] For each assay, a standard curve plate in which IP1 is titrated is also included. […] The % activation is then plotted versus the concentration of test compound and the dose response curve fitted to a standard 4-paramater non-linear regression model using a custom in-house developed software package. Maximal % activation and EC50 are then determined for each test compound.

human GPR41 (FFAR3) = molecular target: T2, human GPR41 (FFAR3) (Homo sapiens, UniProt O14843); test: cAMP (LANCE) functional assay, CHO cells expressing human GPR41; assay type: cell-based
T2 construct: expressed in transfected cells
T2 sequence (O14843 1-346): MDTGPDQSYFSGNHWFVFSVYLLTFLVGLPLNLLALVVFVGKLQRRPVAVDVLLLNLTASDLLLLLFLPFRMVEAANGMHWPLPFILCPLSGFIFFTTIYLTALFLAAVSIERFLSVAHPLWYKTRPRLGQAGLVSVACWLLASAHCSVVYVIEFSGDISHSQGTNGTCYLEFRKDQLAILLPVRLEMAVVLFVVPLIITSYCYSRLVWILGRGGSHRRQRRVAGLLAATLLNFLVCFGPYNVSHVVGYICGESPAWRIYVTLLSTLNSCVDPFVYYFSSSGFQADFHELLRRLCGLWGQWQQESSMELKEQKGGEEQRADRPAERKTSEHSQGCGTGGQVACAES
Procedure: CHO cells stably expressing human GPR41 or human GPR43 were harvested with non-enzymatic cell dissociation buffer and re-suspended in LANCE stimulation buffer (prepared as described by PE) at 0.25 million cells per ml (3.3 million cells per ml for GPR43) and 6 μl was then plated into each well of a 384-well Culturplate. Compounds were serially diluted in DMSO and then diluted further into stimulation buffer containing 2 μM forskolin (Sigma) at 2-times final concentration in the assay. 6 μl of the diluted compounds were then added to the assay plate and the plate incubated for 60 mins at room temperature. After the incubation, 12 μl of detection reagent (prepared as described by PE) was added to each well and the plates incubated one additional hour at room temperature. After the final incubation, the plates were read in a Perkin Elmer Envision reader with a method designed for Time-resolved fluorescence (TRF) assays (340 nm excitation, dual emission 615 and 655 nm). For each assay, a cAMP standard curve plate was also included. All fluorescent readings (using the 655/615 nm ratio) were converted to cAMP concentration using the cAMP standard curve and the percent activity at each concentration of test compound was determined using 0% activation (basal activity) determined in those wells containing DMSO alone, while 100% activity was determined in wells containing a concentration of agonist know to maximally activate the receptor.

[1] = plasma exposure of the compounds on day 14 of the chronic study; assay type: in vivo, rat; conditions: day 14, similar at fed and fasted time points, GK rats
Procedure: At the start of the study, fed glucose was measured at 8 A.M., and animals were selected and sorted into treatment groups based on ambient glucose (n = 10/male GK group, n = 6/male WKY control group). Animals were then placed on diet (LabDiet # 5001) that contained, or was devoid of, compound at the daily doses indicated. Fed blood glucose, food intake, and body weights were determined on days 0, 1, 3, 7, and 14 of study at 8 A.M. On days 7 and 14, food was removed for 5 h and plasma glucose was measured. Percent inhibitions were calculated as the percent reduction of blood glucose from the average value for vehicle controls. On day 14, blood was collected from the tail vein (20 μl) after the morning glucose measurement and after 5 h fast from a subset of n = 3 rats per treatment group to determine the ambient and fasted exposure of the compounds in circulation. The blood was stored at 4°C in 0.1 M sodium monocitrate for subsequent analysis. Animals were then re-fed their respective diet treatments. On day 20 of treatment at 8 A.M., blood glucose was measured and then animals were euthanized via CO2 asphyxiation. Blood and liver tissue were sampled, processed, and stored at -80°C until analysis.

GK rats [2] = test: GK rat chronic efficacy, compound in feed for 20 days; assay type: in vivo; conditions: Day 7, ~6 hrs after food removal; 10mpk; chronic study; individual animals; 10 mg/kg
GK rats [3] = test: OGTT with insulin co-measurement on Day 13 of chronic treatment, parallel set of animals; assay type: in vivo, rat; set-up: unit not given here; conditions: Time 10, individual animals
GPR40 receptor = conditions: cited from earlier work

O=C1NC(=O)C(C2CCOc3cc(Oc4ccc(C(F)(F)F)cc4Cl)ccc32)S1 (centres unmarked) [MK-2305]
selectivity for activation of rat GPR40 vs. GPR120, GPR41, GPR43, PPARα, PPARδ, PPARγ (rat GPR40 (FFAR1)): highly selective | Receptor Activation (%) (rat GPR40 (FFAR1); Concentration 2.00E-06 M): 154% | Receptor Activation (%) (rat GPR40 (FFAR1); Concentration 2.00E-07 M): 169% | Receptor Activation (%) (rat GPR40 (FFAR1); Concentration 2.00E-08 M): 136% | Receptor Activation (%) (rat GPR40 (FFAR1); Concentration 2.00E-09 M): 35% | Receptor Activation (%) (rat GPR40 (FFAR1); Concentration 2.00E-10 M): 5.69% | Receptor Activation (%) (rat GPR40 (FFAR1); Concentration 6.00E-07 M): 163% | Receptor Activation (%) (rat GPR40 (FFAR1); Concentration 6.00E-08 M): 133% | Receptor Activation (%) (rat GPR40 (FFAR1); Concentration 6.00E-09 M): 74% | Receptor Activation (%) (rat GPR40 (FFAR1); Concentration 6.00E-10 M): 16% | Receptor Activation (%) (rat GPR40 (FFAR1); Concentration 6.00E-11 M): -6% | EC50 (rat GPR40 (FFAR1); IP1 accumulation, CHO cells expressing rat GPR40, mean ± SD, N = 29): 0.006 ± 0.0029 µM | % Activation (rat GPR40 (FFAR1); individual experiments (raw data of Table 1)): 118% and 159% and 181% and 151% and 130% and 184% and 179% and 195% and 135% and 146% and 161% and 144% and 191% and 182% and 204% and 258% and 168% and 171% and 187% and 162% and 170% and 165% and 199% and 155% and 137% and 160% and 91% | % Activation (rat GPR40 (FFAR1); maximal activation, percentage of the control response of an in-house partial agonist, mean ± SD): 166% and 166 ± 31^1% | % Activation (human GPR41 (FFAR3); @ 25 μM): 85 @ 25 μM % and 85% | % Effect (human GPR41 (FFAR3); Dose 1.267 nM): -32% | % Effect (human GPR41 (FFAR3); Dose 3.801 nM): 0.634% | % Effect (human GPR41 (FFAR3); Dose 34.208 nM): -2.75% | % Effect (human GPR41 (FFAR3); Dose 102.624 nM): -4.7% | % Effect (human GPR41 (FFAR3); Dose 307.872 nM): -36% | % Effect (human GPR41 (FFAR3); Dose 923.617 nM): -18% | % Effect (human GPR41 (FFAR3); Dose 2770.85 nM): -0.143% | % Effect (human GPR41 (FFAR3); Dose 8312.55 nM): 50% | % Effect (human GPR41 (FFAR3); Dose 24938 nM): 85% | EC50 (human GPR41 (FFAR3); cAMP, CHO cells expressing human GPR41): 12.7 µM | plasma exposure ([1]; 10 mg/kg in feed): ~ 15 μM | plasma exposure ([1]; 30 mg/kg in feed): ~ 39 μM | Fasted blood glucose (GK rats [2]): 134 mg/dl (2×) and 126 mg/dl and 92 mg/dl and 108 mg/dl and 125 mg/dl and 107 mg/dl (2×) and 150 mg/dl | Change in plasma insulin from baseline during OGTT (delta insulin) (GK rats [3]; Acute, 30 mpk, 30 mg/kg): 1.28 and 1.368 and 1.816 and 3.661 and 3.304 and 1.312 and 2.648 and 2.392 and 0.317 and 1.559 | Change in plasma insulin from baseline during OGTT (delta insulin) (GK rats [3]; Chronic, 30 mkd): 1.342 and 0.561 and 1.202 and 1.9 and 1.117 and 1.167 and 2.431 and 1.17 and 1.428 and 0.831 | binding site on GPR40 (GPR40 receptor): binds to the same site as other GPR40 partial agonists such as AMG837 and TAK-875 | effect on binding of AgoPAM's (GPR40 receptor): augments the binding of AgoPAM’s such as AM1638
